Read-outs that look alike come from different tables or passages of the source.
Columns and labels:
[1] = target: T1, glutamate racemase from Bacillus subtilis (RacE) (Bacillus subtilis, UniProt P94556); format: biochemical
[2] = 1 and derivatives thereof; cited from earlier work
[3] = 1 and derivatives thereof; target not determined; cited from earlier work
[4] = target: T1, glutamate racemase from Bacillus subtilis (RacE); settings: BsGR; presented previously; cited from earlier work

T1 sequence (P94556 whole entry): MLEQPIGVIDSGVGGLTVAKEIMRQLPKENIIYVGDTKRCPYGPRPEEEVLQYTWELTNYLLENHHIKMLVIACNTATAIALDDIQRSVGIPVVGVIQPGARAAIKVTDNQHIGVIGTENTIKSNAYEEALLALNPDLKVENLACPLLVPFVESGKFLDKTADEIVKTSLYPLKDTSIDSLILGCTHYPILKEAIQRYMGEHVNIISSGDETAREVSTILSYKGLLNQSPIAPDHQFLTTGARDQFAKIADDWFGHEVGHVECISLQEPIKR

| SMILES | ligand efficiency [1] [kcal/mol/heavy atom] | mode of inhibition ([1]; verified by global fitting to varying inhibition models) | toxicity [2] | antibacterial and antifungal activity [3] | mode of inhibition [4] |
| --- | --- | --- | --- | --- | --- |
| O=S(=O)(O)c1nc2ccccc2[nH]1 [Compound 1, benzimidazole-2-sulfonic acid] | 0.53 | competitive inhibitor | low toxicity | antibacterial and antifungal activity | – |
| O=c1c(O)c(O)c(=O)c1=O [Compound 2, Croconic acid] | – | – | – | – | competitive inhibitors |
| O=S(=O)(O)c1ccc(O)c(S(=O)(=O)O)c1 [Compound 3, 4-Hydroxy-1,3-benzenedisulfonic acid] | – | – | – | – | competitive inhibitors |
| O=C(O)c1cccc(C(=O)O)n1 [Compound 9, dipicolinic acid] | – | – | – | – | competitive inhibitors |

Source: publication PMC3129543 (Molecular informatics, 2011)
